Measured values from patent publication US5248771A, “Process for preparing no-carrier-added radiohalogenated vinyl nucleosides” (Triumf, priority 1991, dated 1993).
Like-named read-outs stand apart in the source and are kept apart here.

What was measured:
HSV-1 (ATCC Strain F) = experiment: [125I]IVaraU uptake into HFF cells infected with HSV-1, gamma activity per tube; type: cell-based, HSV-1; HFF (Human Foreskin Fibroblast) cells; conditions: HSV-1 (ATCC Strain F) infected HFF cells, MOI 1.0, 2.3×10^6 cpm/ml, 6 hours, 37° C.
Method: (§1) Upright roller tubes were seeded with 1.5×10^5 HFF (Human Foreskin Fibroblast) cells/tube in a volume of 1.0 ml of Minimal Essential Medium (MEM) with added 5% FCS (Fetal Calf Serum) and incubated at 37° C. overnight. The growth media was poured off and replaced with 1.0 ml of viral growth media (Med 199 Hank's salts with 2% FCS) containing ^125 I-IVaraU (2.3×10^6 cpm/ml). 100 μl of virus (diluted to appropriate concentration in viral growth media) was added to assay tubes. In this case, a multiplicity of infection of 1.0 was used. 100 μl of viral growth media was added to the control (viral uninoculated) tubes.
(§2) The tubes were centrifuged 5000 g×30 minutes at 37° C., incubated at 37° C., 5% CO2 for 6 hours, and the media was then poured off. The tubes were washed with 4×2 mls warm "cell" phosphate buffered saline (PBS), and 1.0 ml of trypsin-versene solution was added and the tubes were incubated at 37° C. for 5-10 minutes. The cell sheets were removed and transferred to 4 ml polystyrene tubes. The gamma activity was counted with a Gamma counter.

HSV-2 (ATCC Strain G) = experiment: [125I]IVaraU uptake into HFF cells infected with HSV-2, gamma activity per tube; type: cell-based, HSV-2; HFF (Human Foreskin Fibroblast) cells; conditions: HSV-2 (ATCC Strain G) infected HFF cells, MOI 1.0, 2.3×10^6 cpm/ml, 6 hours, 37° C.
Method: as §1, §2

[1] = test system: HFF (Human Foreskin Fibroblast) cells; experiment: [125I]IVaraU uptake into uninoculated HFF cells (control), gamma activity per tube; type: cell-based; conditions: 2.3×10^6 cpm/ml, 6 hours, 37° C.
Method: as §1, §2

HSV 1 infected cells = experiment: uptake of [125I]IVaraU by HSV 1 infected cells compared with uninfected and HSV 2 infected cells; type: cell-based
Method: as §1
The tubes were centrifuged 5000 g×30 minutes at 37° C., incubated at 37° C., 5% CO2 for 6 hours, and the media was then poured off. The tubes were washed with 4×2 mls warm "cell" phosphate buffered saline (PBS), and 1.0 ml of trypsin-versene solution was added and the tubes were incubated at 37° C. for 5-10 minutes. The cell sheets were removed and transferred to 4 ml polystyrene tubes. The gamma activity was counted with a Gamma counter. […]

in vivo = experiment: in vivo; parameters: species or system HSV1; A/J mice; conditions: mouse, in vivo, iv, 1 μCurie in 100 μL i.v. tail vein, read-out: brain uptake, % dose per gram in entire brain
Text: (§3) This example measured the biodistribution of [^125 I]-IVaraU in the bodies of mice infected with HSV throughout the entire body. The brain was emphasized. Various uninfected controls were included to make the interpretation clear.
(§4) […] strain A/J mice were used in all: (i) with [^125 I]IVaraU, 20 mice received HSV1 and 20 mice were uninfected; and (ii) with [^125 I]NaI (a control compared to IVaraU), again 20 mice received HSV1 and 20 mice were uninfected.
(§5) INFECTION: Seven days prior to injection of the drug, each A/J mouse was inoculated by scratching the lip and applying a suspension of herpes simplex virus 1 (HSV1); this was the Kastrukoff murine-adapted strain of HSV1. This inoculation technique is a literature technique which has been established to cause herpes foci of herpes infection in the brains of over 99% of mice so inoculated. See Kastrukoff LF, Lau AS, and Puterman ML. J Gen Virol 67 (1986) 613-621. The HSV1 inoculation may be considered to take place at time "zero minus seven days". ADMINISTRATION OF THE RADIOPHARMACEUTICAL: The mice were divided into four experimental groups based on the two variables +/- HSV1, and IVaraU/NaI. The infected mice were being compared to non-infected mice. The radiopharmaceutical ([^125 I]IVaraU or [^125 I]NaI) was diluted to give 1μ Curie per 100 μL. 100 μL was then injected into the tailvein of each mouse. (Injection may be considered to take place at "time zero".) ANALYSIS OF INDIVIDUAL BODY ORGANS: At times 1h, 4h, 24h, and 48h, 5 mice were taken from each experimental group and sacrificed by exsanguination (the carotid artery was severed with a surgical scalpel). Blood was collected. Each animal was dissected, and the following organs were removed: brain, liver, kidney, pancreas, spleen, stomach, heart, lung, and muscle. Each organ or tissue specimen was weighed and then ^125 I activity was counted in a gamma ray counter. From the data weight, ^125 I, and ^125 I injected dose result values of "% dose per gram" were calculated for the different tissue specimens.

[2] = test system: herpes simplex virus 1 (HSV1); experiment: in vivo; parameters: species or system HSV1; A/J mice
Text: as §3, §4, §5

HSV1 strain KOS = experiment: [125I]IVaraU uptake in rabbit brain infected with HSV1, gamma counts of brain blocks; type: in vivo, HSV1; New Zealand White rabbits
Method: The rabbit brains were infected with HSV1and then [^125 I]IVaraU was injected. The infection was located by assaying for herpes antigen and also by considering the brain anatomy involved. The assay was performed for [^125 I]IVaraU by gamma ray counts on segments cut from the brain.
INFECTION: Three New Zealand White female rabbits ([…], 2.5-5.0 kg) were anaesthetized by standard intramuscular injections of ketamine and xylazine. A 3.5 inch french tomcat catheter was introduced into the right nostril and 100 μL of the virus inoculation solution was released onto the right cribiform plate (this is a non-invasive means to create a brain infection). The virus inoculation solution consisted of 3.7×10^6 plaque forming units per mL HSV1 strain KOS suspended in commercial media of the type "199 with Hanks' salts". Two rabbits denoted "A" and "B" received the virus suspension exactly as described. A third rabbit denoted "C" was a "control"; it received 100 μL "199 with Hanks' salts" but no virus. The three rabbits were returned to their cages; infection was allowed to develop for 5 days before the injection of [^125 I]VaraU was carried out. INJECTION OF DRUG: 5 days following HSV1 inoculation, each rabbit was given 0.1 to 0.2 millicuries [^125 I]IVaraU suspended in 1 mL standard phosphate buffered saline PBS). The drug was administered by injection into the right marginal ear vein. SACRIFICE OF THE RABBITS: 24H after the [^125 I]IVaraU injection, the rabbits were sacrificed by an overdose of the drug Somnotol (T.M.) (MTC Pharmaceuticals). Following death, each rabbit was perfused with 300-400 mL PBS introduced into the ascending aorta. (The perfusion procedure served to remove blood from vessels in the brain and the body in general.)
The skull was dissected; the brain was cut out and removed. The brain was then sectioned into thirty 0.5 cm thick coronal blocks. The cutting and numbering of the blocks was carried out in a systematic way with respect to brain anatomy. Brain blocks were immersed and stored in 10% formalin. COUNTING OF ^125 I ACTIVITY IN BRAIN BLOCKS: Each block was weighed and then counted in a well-type gamma ray counter. The "counts per minute per gram" was calculated for each block of tissue for rabbits "A", "B" and "C". From each "cpm per gram" in infected rabbits "A" and "B" was subtracted the "cpm per gram" in the corresponding brain block from the uninfected rabbit "C". (The typical value of "cpm per gram" was about 20,000 cpm per gram in rabbit "C".)

[3] = cited from earlier work
[4] = cited from earlier work; remark: listed apart in the source
herpes infected tissue = conditions: S. Sacks, Abstract 97, 1988 Interscience Conference; cited from earlier work
herpes virus = conditions: depending on the strain of herpes virus; cited from earlier work

O=c1[nH]c(=O)n([C@@H]2O[C@H](CO)[C@@H](O)[C@@H]2O)cc1/C=C/[125I] [[^125 I]IVaraU]
Activity/Tube (Average) (HSV-1 (ATCC Strain F)): 59,914 cpm | Activity/Tube (Average) (HSV-2 (ATCC Strain G)): 14,462 cpm | Activity/Tube (Average) [1]: 1,332 cpm | uptake by HSV 1 vs HSV 2 infected cells (HSV 1 infected cells; HSV 1 vs HSV 2 infected cells): HSV 1 infected cells took up more radio compound than HSV 2 infected cells | specific uptake by HSV 1 infected cells (HSV 1 infected cells; vs uninfected cells): taken up specifically by HSV 1 infected cells, as compared with uninfected cells | tissue uptake at 1 h (in vivo; Infected): 1.49 %ID/g | tissue uptake at 4 h (in vivo; Infected): 0.36 %ID/g | tissue uptake at 24 h (in vivo; Infected): 0.0379 %ID/g | tissue uptake at 48 h (in vivo; Infected): 0.0181 %ID/g | tissue uptake at 1 h (in vivo; Uninfected): 1.27 %ID/g | tissue uptake at 4 h (in vivo; Uninfected): 0.229 %ID/g | tissue uptake at 24 h (in vivo; Uninfected): 0.0024 %ID/g | tissue uptake at 48 h (in vivo; Uninfected): 0.0005 %ID/g | brain uptake Ratio infected/uninfected ([2]; 1H): 1.18 | brain uptake Ratio infected/uninfected ([2]; 4H): 1.57 | brain uptake Ratio infected/uninfected ([2]; 24H): 15.8 | brain uptake Ratio infected/uninfected ([2]; 48H): 36.2 | (corrected) activities in brain regions (HSV1 strain KOS; infected rabbits A and B minus uninfected C, forebrain): higher in the forebrain, especially in the olfactory lobes | activities towards the hindbrain (HSV1 strain KOS; infected rabbits, corrected): approached background | activity in right olfactory lobe vs trigeminal ganglia and Level 1 (HSV1 strain KOS; infected rabbits, corrected): higher than in the trigeminal ganglia and Level 1 | activity in right vs left olfactory lobe (HSV1 strain KOS; infected rabbits, corrected, virus given in right nostril): higher in the right olfactory lobe than the left | typical cpm per gram in brain blocks of uninfected rabbit C (HSV1 strain KOS; uninfected rabbit "C", 24H after 0.1 to 0.2 millicuries i.v.): about 20,000 cpm per gram

O=c1[nH]c(=O)n([C@@H]2O[C@H](CO)[C@@H](O)[C@@H]2O)cc1/C=C/Br [BrVaraU, (E)-5(2 bromo vinyl)-arabinofuranosyl uracil]
metabolic stability in vivo [3]: appeared metabolically stable in vivo

O=c1[nH]c(=O)n([C@@H]2O[C@H](CO)[C@@H](O)[C@@H]2O)cc1/C=C/F [FVaraU]
potency in vivo per unit weight [4]: less potent in vivo

O=c1[nH]c(=O)n([C@@H]2O[C@H](CO)[C@@H](O)[C@@H]2O)cc1/C=C/[123I] [[^123 I]IVaraU]
concentrated in herpes infected tissue (herpes infected tissue): concentrated in herpes infected tissue

O=c1[nH]c(=O)n([C@@H]2O[C@H](CO)[C@@H](O)[C@@H]2O)cc1/C=C/Cl [ClVaraU]
potency in vivo per unit weight [4]: less potent in vivo

O=c1[nH]c(=O)n([C@@H]2O[C@H](CO)[C@@H](O)[C@@H]2O)cc1/C=C/I [IVaraU]
concentration effectively inhibiting herpes virus (herpes virus): approximately 1×10^-9 g/mL | potency in vivo per unit weight [4]: highly potent in vivo per unit weight | metabolic stability in vivo [3]: appeared metabolically stable in vivo
